Where a name gives a salt, the structure may show the parent alone.

The nature of this data set: aqueous solubility. Type of data set: physicochemical. The note with it: crystalline Form N-2 of the dihydrochloride salt.

On to `COC(=O)N[C@H](C(=O)N1CCC[C@H]1c1nc(-c2ccc(-c3ccc(-c4c[nH]c([C@@H]5CCCN5C(=O)[C@@H](NC(=O)OC)C(C)C)n4)cc3)cc2)c[nH]1)C(C)C` [Compound (I), methyl ((1S)-1-(((2S)-2-(5-(4′-(2-((2S)-1-((2S)-2-((methoxycarbonyl)amino)-3-methylbutanoyl-2-pyrrolidinyl)-1H-imidazol-5-yl)-4-biphenylyl)-1H-imidazol-2-yl)-1-pyrrolidinyl)carbonyl)-2-methylpropyl)carbamatedihydrochloride salt], for which the aqueous solubility entry was “high”.

Values taken from patent US8629171B2, “Crystalline form of methyl ((1S)-1-((25)-2-(5-(4'-(2-((25)-1((2S)-2-((methoxycarbonyl)amino)-3-methylbutanoyl)-2-pyrrolidinyl)-1H-imidazol-2-yl)-1-pyrrolidinyl)carbonyl)-2-methylpropyl)carbamate dihydrochloride salt” (Bristol-Myers Squibb Company, priority 2007, dated 2014).
